1 compound from patent publication US9918975B2, “Method for improving dissolution of anticoagulant agent” (Daiichi Sankyo Company, Limited, priority 2010, dated 2018) can be followed below.

This data set in a line: Solubility of compound I in aqueous solutions. The format is physicochemical.

Consider `CN1CCc2nc(C(=O)N[C@@H]3C[C@@H](C(=O)N(C)C)CC[C@@H]3NC(=O)C(=O)Nc3ccc(Cl)cn3)sc2C1` [compound I, N^1-(5-chloropyridin-2-yl)-N^2-((1S,2R,4S)-4-[(dimethylamino)carbonyl]-2-{[(5-methyl-4,5,6,7-tetrahydrothiazolo[5,4-c]pyridin-2-yl)carbonyl]amino}cyclohexyl)ethanediamide], for which the solubility entry (neutral aqueous solutions (e.g., a neutral buffer)) is listed as “reduced solubility” and the solubility result (strongly acidic aqueous solutions) was “favorable solubility”.
